Values joined by “and” are separate entries in the source; they are usually repeats but may differ in a detail not shown here. Equal entries are not always repeated. Inconclusive results and toxic doses are left out. Starred links: 1 amine or outer side, 2 acyl side, 3 side chain; linkers in the order of their positions; H or OH if unused. Positions of bridges follow the written chain, without caps; N, C: chain ends. Non-standard residues stand in square brackets, D forms with d. Residues, ends and D or L forms follow the SMILES beside them. ξ: configuration not given here. *: point of attachment. ξOrn(4,5-diOH) = O=C(C(CC(O)C(O)N[*:3])N[*:1])[*:2]; ξhTyr(βξ-OH,γξ-OH) = NC(C(=O)O)C(O)C(O)c1ccc(O)cc1; ξPro(3ξ-OH,4ξ-Me) = CC1CNC(C(=O)O)C1O; X4 = CCCCC/C=C/C/C=C\CCCCCCCC(=O)*; Hyp = O=C(O)[CH]1C[CH](O)CN1
System: BDF1 mice, P388 leukemia ip, median survival T/C
Test: NCI In Vivo Anticancer Drug Screen. Data for tumor model P388 Leukemia (intraperitoneal) in B6D2F1 (BDF1) mice
Conditions: endpoint: median survival time, higher = longer survival
Procedure, shortened: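 In tumour-bearing mice, survival after compound treatment is set against the vehicle group and given as a quotient.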

[1] = dose: 100.0 mg/kg/injection, schedule: Q01DX009 (ip), vehicle: saline with Tween-80
[2] = dose: 100.0 mg/kg/injection, schedule: Q01DX009 (ip), vehicle: saline
[3] = dose: 200.0 mg/kg/injection, schedule: Q01DX009 (ip), vehicle: saline with Tween-80
[4] = dose: 200.0 mg/kg/injection, schedule: Q01DX009 (ip), vehicle: saline
[5] = dose: 400.0 mg/kg/injection, schedule: Q01DX009 (ip), vehicle: saline with Tween-80
[6] = dose: 400.0 mg/kg/injection, schedule: Q01DX009 (ip), vehicle: saline
[7] = dose: 100.0 mg/kg/injection, schedule: Q01DX009 (ip), vehicle: Klucel (hydroxypropylcellulose) (HPC)
[8] = dose: 100.0 mg/kg/injection, schedule: Q04DX003 (ip), vehicle: Klucel (hydroxypropylcellulose) (HPC)
[9] = dose: 200.0 mg/kg/injection, schedule: Q01DX009 (ip), vehicle: Klucel (hydroxypropylcellulose) (HPC)
[10] = dose: 100.0 mg/kg/injection, schedule: Q04DX003 (ip), vehicle: saline
[11] = dose: 200.0 mg/kg/injection, schedule: Q04DX003 (ip), vehicle: saline
[12] = dose: 400.0 mg/kg/injection, schedule: Q04DX003 (ip), vehicle: saline
[13] = dose: 50.0 mg/kg/injection, schedule: Q01DX009 (ip), vehicle: saline with Tween-80
[14] = dose: 100.0 mg/kg/injection, schedule: Q04DX003 (ip), vehicle: saline with Tween-80
[15] = dose: 200.0 mg/kg/injection, schedule: Q04DX003 (ip), vehicle: saline with Tween-80
[16] = dose: 400.0 mg/kg/injection, schedule: Q04DX003 (ip), vehicle: saline with Tween-80

NC(Cc1ccc([N+](=O)[O-])cc1)C(=O)O (stereo unspecified)
T/C [1]: 105 % of control
T/C [2]: 100 % of control
T/C (dose: 100.0 mg/kg/injection, schedule: Q04DX003 (ip), vehicle: other): 100 % of control
T/C [3]: 110 % of control
T/C [4]: 100 % of control
T/C (dose: 200.0 mg/kg/injection, schedule: Q04DX003 (ip), vehicle: other): 104 % of control
T/C [5]: 90 % of control
T/C [6]: 86 % of control
T/C (dose: 400.0 mg/kg/injection, schedule: Q04DX003 (ip), vehicle: other): 100 % of control

O=C(Cn1ccc(O)cc1=O)c1cccs1
T/C [1]: 97 % of control
T/C [3]: 97 % of control
T/C [5]: 97 % of control

CC1=C2CC(C)(C)/C=C\C(=O)/C(C)=C\C3=CC(C)(O)CC3(O2)C1=O (stereo unspecified)
T/C (dose: 0.16 mg/kg/injection, schedule: Q01DX009 (ip), vehicle: saline + alcohol): 93 % of control
T/C (dose: 0.31 mg/kg/injection, schedule: Q01DX009 (ip), vehicle: saline + alcohol): 118 % of control
T/C (dose: 0.62 mg/kg/injection, schedule: Q01DX009 (ip), vehicle: saline + alcohol): 120 % of control
T/C (dose: 1.25 mg/kg/injection, schedule: Q01DX009 (ip), vehicle: saline + alcohol): 118 % of control
T/C (dose: 10.0 mg/kg/injection, schedule: Q01DX009 (ip), vehicle: saline + alcohol): 154 % of control

COc1cc(NS(C)(=O)=O)ccc1N
T/C [7]: 100 % of control
T/C [8]: 100 % of control
T/C [9]: 90 % of control

Cc1cc(=O)[nH]c(N/N=C/c2ccccc2O)n1
T/C (dose: 200.0 mg/kg/injection, schedule: Q01DX010 (ip), vehicle: saline): 90 % of control
T/C (dose: 300.0 mg/kg/injection, schedule: Q01DX010 (ip), vehicle: saline): 95 % of control
T/C (dose: 400.0 mg/kg/injection, schedule: Q01DX010 (ip), vehicle: saline): 95 % of control
T/C (dose: 500.0 mg/kg/injection, schedule: Q01DX010 (ip), vehicle: saline): 95 % of control

CCCCC/C=C/C/C=C\CCCCCCCC(=O)NC1CC(O)C(O)NC(=O)C2C(O)C(C)CN2C(=O)C(C(C)O)NC(=O)C(C(O)C(O)c2ccc(O)cc2)NC(=O)C2CC(O)CN2C(=O)C(C(C)O)NC1=O (stereo not drawn) (X4-[ξOrn(4,5-diOH)]T[Hyp][ξhTyr(βξ-OH,γξ-OH)]T[ξPro(3ξ-OH,4ξ-Me)]; lactam 1-C; configuration not given here)
T/C (dose: 0.5 mg/kg/injection, schedule: Q01DX009 (ip), vehicle: lactate): 100 % of control
T/C (dose: 1.0 mg/kg/injection, schedule: Q01DX009 (ip), vehicle: lactate): 102 % of control
T/C (dose: 2.0 mg/kg/injection, schedule: Q01DX009 (ip), vehicle: lactate): 102 % of control
T/C (dose: 4.0 mg/kg/injection, schedule: Q01DX009 (ip), vehicle: lactate): 100 % of control

COc1cc2c(cc1OCc1ccccc1)C(C#N)N(C(=O)c1ccccc1)C=C2 (stereo unspecified)
T/C (dose: 25.0 mg/kg/injection, schedule: Q01DX009 (ip), vehicle: saline): 109 % of control
T/C (dose: 25.0 mg/kg/injection, schedule: Q04DX003 (ip), vehicle: saline): 97 % of control
T/C (dose: 50.0 mg/kg/injection, schedule: Q01DX009 (ip), vehicle: saline): 100 % of control
T/C (dose: 50.0 mg/kg/injection, schedule: Q04DX003 (ip), vehicle: saline): 95 % of control
T/C [2]: 97 % of control
T/C [10]: 97 % of control
T/C [4]: 98 % of control
T/C [11]: 88 % of control
T/C [6]: 100 % of control
T/C [12]: 94 % of control

Cn1cc(/C=C/C(N)=O)c2nccnc21
T/C (dose: 1.56 mg/kg/injection, schedule: Q01DX009 (ip), vehicle: water): 114 % of control
T/C (dose: 3.12 mg/kg/injection, schedule: Q01DX009 (ip), vehicle: water): 100 % of control
T/C (dose: 3.12 mg/kg/injection, schedule: Q04DX003 (ip), vehicle: water): 115 % of control
T/C (dose: 6.25 mg/kg/injection, schedule: Q01DX009 (ip), vehicle: water): 95 % of control
T/C (dose: 6.25 mg/kg/injection, schedule: Q04DX003 (ip), vehicle: water): 106 % of control
T/C (dose: 12.5 mg/kg/injection, schedule: Q01DX009 (ip), vehicle: water): 96 % of control
T/C (dose: 12.5 mg/kg/injection, schedule: Q04DX003 (ip), vehicle: water): 98 % of control
T/C (dose: 25.0 mg/kg/injection, schedule: Q01DX009 (ip), vehicle: water): 100 % of control and 102 % of control
T/C (dose: 25.0 mg/kg/injection, schedule: Q04DX003 (ip), vehicle: water): 98 % of control
T/C (dose: 50.0 mg/kg/injection, schedule: Q01DX009 (ip), vehicle: water): 86 % of control
T/C (dose: 50.0 mg/kg/injection, schedule: Q04DX003 (ip), vehicle: water): 102 % of control

Oc1ccc2ccccc2c1/C=N\Sc1ccc(Cl)cc1
T/C (dose: 12.5 mg/kg/injection, schedule: Q01DX009 (ip), vehicle: saline with Tween-80): 90 % of control
T/C (dose: 25.0 mg/kg/injection, schedule: Q01DX009 (ip), vehicle: saline with Tween-80): 96 % of control
T/C [13]: 106 % of control

CCCCOCN(COCCCC)c1cccc([N+](=O)[O-])c1
T/C [13]: 102 % of control
T/C [1]: 100 % of control
T/C [3]: 111 % of control

O=P(Oc1cccc2ccccc12)(N1CC1)N1CC1
T/C [1]: 181 % of control
T/C [14]: 122 % of control
T/C (dose: 150.0 mg/kg/injection, schedule: Q01DX009 (ip), vehicle: saline with Tween-80): 231 % of control
T/C [15]: 150 % of control
T/C (dose: 264.0 mg/kg/injection, schedule: Q04DX003 (ip), vehicle: saline with Tween-80): 200 % of control
T/C [16]: 181 % of control and 220 % of control

O=C(c1ccccc1Br)C(Br)C(Br)c1ccccc1 (stereo unspecified)
T/C [8]: 120 % of control
T/C (dose: 200.0 mg/kg/injection, schedule: Q04DX003 (ip), vehicle: Klucel (hydroxypropylcellulose) (HPC)): 110 % of control

N#CCCN(C(=O)Nc1ccc(Cl)c(Cl)c1)C1CCCCC1
T/C [13]: 124 % of control
T/C [1]: 104 % of control
T/C [3]: 94 % of control
T/C [5]: 97 % of control

O=[N+]([O-])c1ccc(F)c(CNc2ncnc3c2ncn3C2CCCCO2)c1 (stereo unspecified)
T/C (dose: 100.0 mg/kg/injection, schedule: Q01DX001 (ip), vehicle: Klucel (hydroxypropylcellulose) (HPC)): 95 % of control
T/C (dose: 200.0 mg/kg/injection, schedule: Q01DX001 (ip), vehicle: Klucel (hydroxypropylcellulose) (HPC)): 110 % of control
T/C (dose: 400.0 mg/kg/injection, schedule: Q01DX001 (ip), vehicle: Klucel (hydroxypropylcellulose) (HPC)): 105 % of control

CC1(O)CCC2C3CCC4CC(=O)CCC4(C)C3(F)C(O)CC21C (stereo unspecified)
T/C (dose: 100.0 mg/kg/injection, schedule: Q01DX001 (ip), vehicle: saline): 100 % of control
T/C [2]: 90 % of control
T/C [10]: 104 % of control
T/C (dose: 200.0 mg/kg/injection, schedule: Q01DX001 (ip), vehicle: saline): 86 % of control
T/C [4]: 109 % of control
T/C [11]: 104 % of control
T/C (dose: 400.0 mg/kg/injection, schedule: Q01DX001 (ip), vehicle: saline): 95 % of control
T/C [6]: 113 % of control
T/C [12]: 104 % of control

CC(=O)c1c(-c2ccccc2)noc1C
T/C [14]: 98 % of control
T/C [15]: 90 % of control
T/C [16]: 100 % of control

CC1(c2ccc(-c3ccccc3)cc2)NC(=O)NC1=O (stereo unspecified)
T/C [1]: 91 % of control
T/C [3]: 95 % of control
T/C [5]: 88 % of control

Nc1cc(Cl)cc(Cl)c1C(=O)O
T/C (dose: 100.0 mg/kg/injection, schedule: Q01DX001 (ip), vehicle: other): 95 % of control
T/C (dose: 200.0 mg/kg/injection, schedule: Q01DX001 (ip), vehicle: other): 100 % of control
T/C (dose: 400.0 mg/kg/injection, schedule: Q01DX001 (ip), vehicle: other): 95 % of control

O=C1CC(SC(=S)C2CCCC2=O)C(=O)O1 (stereo unspecified)
T/C [13]: 122 % of control

CCCCCN(C)/N=N/c1nc[nH]c1C(N)=O
T/C [3]: 100 % of control
T/C (dose: 264.0 mg/kg/injection, schedule: Q04DX003 (ip), vehicle: Klucel (hydroxypropylcellulose) (HPC)): 90 % of control
T/C (dose: 400.0 mg/kg/injection, schedule: Q04DX003 (ip), vehicle: Klucel (hydroxypropylcellulose) (HPC)): 86 % of control

O=c1c[n+](-c2ccccc2)[nH]o1
T/C [7]: 115 % of control
T/C [9]: 90 % of control

CCN(c1ccccc1)c1cc2c(cc1[N+](=O)[O-])no[n+]2[O-]
T/C (dose: 30.0 mg/kg/injection, schedule: Q01DX009 (ip), vehicle: saline with Tween-80): 123 % of control
T/C (dose: 60.0 mg/kg/injection, schedule: Q01DX009 (ip), vehicle: saline with Tween-80): 113 % of control

Source: PubChem BioAssay AID328 (DTP/NCI, 2004)
